From ChEMBL document CHEMBL3431459, “Roche carnitine palmitoyltransferase modulator screening data (supplementary data associated with the publication CHEMBL2216752)”
pIC50: −log10 of the molar value. ≈ marks a conversion by molar mass, not a printed value.

Tests used:
[1] = SUPPLEMENTARY: Lipophilicity (log D) Determination by high-throughput shake-flask; type: physicochemical; conditions: octanol/water
[2] = SUPPLEMENTARY: PAMPA permeability assay; type: physicochemical; conditions: read-out: Permeability
[3] = target: T1, Carnitine O-palmitoyltransferase 2, mitochondrial (Rattus norvegicus, UniProt P18886); assay: (§1) SUPPLEMENTARY: Inhibition of Carnitine palmitoyltransferase 2
T1 sequence (P18886 whole entry): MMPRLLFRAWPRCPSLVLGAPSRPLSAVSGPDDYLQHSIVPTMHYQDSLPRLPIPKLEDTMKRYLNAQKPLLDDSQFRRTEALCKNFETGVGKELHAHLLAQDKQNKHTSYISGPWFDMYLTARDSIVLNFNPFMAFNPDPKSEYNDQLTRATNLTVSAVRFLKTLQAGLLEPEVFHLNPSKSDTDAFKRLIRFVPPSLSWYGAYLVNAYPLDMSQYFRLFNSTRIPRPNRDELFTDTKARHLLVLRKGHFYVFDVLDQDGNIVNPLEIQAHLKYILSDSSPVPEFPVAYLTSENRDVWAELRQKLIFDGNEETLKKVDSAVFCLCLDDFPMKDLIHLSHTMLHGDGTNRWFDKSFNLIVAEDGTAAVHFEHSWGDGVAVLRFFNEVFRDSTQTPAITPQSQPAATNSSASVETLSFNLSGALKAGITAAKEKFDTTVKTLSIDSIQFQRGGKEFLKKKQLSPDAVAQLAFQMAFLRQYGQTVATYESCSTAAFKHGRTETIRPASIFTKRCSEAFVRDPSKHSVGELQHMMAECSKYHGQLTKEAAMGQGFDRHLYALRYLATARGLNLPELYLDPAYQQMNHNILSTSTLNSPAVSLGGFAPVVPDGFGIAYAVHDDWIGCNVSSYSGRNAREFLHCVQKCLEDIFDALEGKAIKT

[4] = target: T2, Carnitine O-palmitoyltransferase 2, mitochondrial (Homo sapiens, UniProt P23786); assay: as §1
T2 sequence (P23786 whole entry): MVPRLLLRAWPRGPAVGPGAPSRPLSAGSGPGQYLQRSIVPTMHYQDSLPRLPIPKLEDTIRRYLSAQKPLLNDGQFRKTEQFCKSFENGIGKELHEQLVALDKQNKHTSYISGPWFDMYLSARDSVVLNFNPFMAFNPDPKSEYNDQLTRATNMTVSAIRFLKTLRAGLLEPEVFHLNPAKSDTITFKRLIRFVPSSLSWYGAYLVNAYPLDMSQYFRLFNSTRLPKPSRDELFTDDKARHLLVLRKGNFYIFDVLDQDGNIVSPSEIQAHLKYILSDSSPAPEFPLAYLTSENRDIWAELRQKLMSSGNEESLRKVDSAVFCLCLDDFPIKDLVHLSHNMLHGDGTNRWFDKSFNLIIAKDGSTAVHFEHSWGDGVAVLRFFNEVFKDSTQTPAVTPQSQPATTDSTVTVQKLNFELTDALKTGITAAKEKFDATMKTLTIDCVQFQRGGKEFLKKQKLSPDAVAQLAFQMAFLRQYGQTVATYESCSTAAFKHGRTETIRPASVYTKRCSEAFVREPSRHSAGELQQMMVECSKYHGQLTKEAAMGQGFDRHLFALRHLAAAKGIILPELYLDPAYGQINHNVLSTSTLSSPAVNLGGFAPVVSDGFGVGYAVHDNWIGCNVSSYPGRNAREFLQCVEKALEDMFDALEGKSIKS

[5] = SUPPLEMENTARY: Lyophilisation Solubility Assay (LYSA); type: physicochemical; conditions: read-out: Kinetic_solubility
[6] = target: T3, Carnitine O-palmitoyltransferase 1, muscle isoform (Homo sapiens, UniProt Q92523); assay: SUPPLEMENTARY: Inhibition of Carnitine palmitoyltransferase 1, muscle isoform; set-up: species or system Muscle tissue
T3 sequence (Q92523 whole entry): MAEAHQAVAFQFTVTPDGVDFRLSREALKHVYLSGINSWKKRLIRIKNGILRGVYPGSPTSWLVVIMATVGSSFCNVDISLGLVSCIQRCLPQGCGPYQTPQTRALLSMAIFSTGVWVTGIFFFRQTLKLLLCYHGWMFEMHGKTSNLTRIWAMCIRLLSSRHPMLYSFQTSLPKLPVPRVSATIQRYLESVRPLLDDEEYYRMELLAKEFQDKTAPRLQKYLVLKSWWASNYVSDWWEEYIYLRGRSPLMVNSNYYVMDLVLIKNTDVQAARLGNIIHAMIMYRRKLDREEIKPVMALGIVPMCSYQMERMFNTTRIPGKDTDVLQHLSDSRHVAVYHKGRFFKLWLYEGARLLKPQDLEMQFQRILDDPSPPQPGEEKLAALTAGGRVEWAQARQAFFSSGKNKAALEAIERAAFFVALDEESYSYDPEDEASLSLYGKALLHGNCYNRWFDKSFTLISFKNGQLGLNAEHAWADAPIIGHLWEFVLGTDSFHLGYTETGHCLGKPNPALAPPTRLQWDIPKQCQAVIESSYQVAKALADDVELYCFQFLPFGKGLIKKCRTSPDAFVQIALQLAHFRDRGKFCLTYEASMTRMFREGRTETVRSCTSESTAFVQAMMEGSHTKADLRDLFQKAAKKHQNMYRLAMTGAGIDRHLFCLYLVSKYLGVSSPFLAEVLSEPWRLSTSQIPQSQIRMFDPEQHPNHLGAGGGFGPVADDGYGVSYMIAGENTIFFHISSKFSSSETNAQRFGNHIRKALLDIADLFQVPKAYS

[7] = target: T4, Carnitine O-palmitoyltransferase 1, liver isoform (Homo sapiens, UniProt P50416); assay: (§2) SUPPLEMENTARY: Inhibition of Carnitine palmitoyltransferase 1, liver isoform
T4 sequence (P50416 whole entry): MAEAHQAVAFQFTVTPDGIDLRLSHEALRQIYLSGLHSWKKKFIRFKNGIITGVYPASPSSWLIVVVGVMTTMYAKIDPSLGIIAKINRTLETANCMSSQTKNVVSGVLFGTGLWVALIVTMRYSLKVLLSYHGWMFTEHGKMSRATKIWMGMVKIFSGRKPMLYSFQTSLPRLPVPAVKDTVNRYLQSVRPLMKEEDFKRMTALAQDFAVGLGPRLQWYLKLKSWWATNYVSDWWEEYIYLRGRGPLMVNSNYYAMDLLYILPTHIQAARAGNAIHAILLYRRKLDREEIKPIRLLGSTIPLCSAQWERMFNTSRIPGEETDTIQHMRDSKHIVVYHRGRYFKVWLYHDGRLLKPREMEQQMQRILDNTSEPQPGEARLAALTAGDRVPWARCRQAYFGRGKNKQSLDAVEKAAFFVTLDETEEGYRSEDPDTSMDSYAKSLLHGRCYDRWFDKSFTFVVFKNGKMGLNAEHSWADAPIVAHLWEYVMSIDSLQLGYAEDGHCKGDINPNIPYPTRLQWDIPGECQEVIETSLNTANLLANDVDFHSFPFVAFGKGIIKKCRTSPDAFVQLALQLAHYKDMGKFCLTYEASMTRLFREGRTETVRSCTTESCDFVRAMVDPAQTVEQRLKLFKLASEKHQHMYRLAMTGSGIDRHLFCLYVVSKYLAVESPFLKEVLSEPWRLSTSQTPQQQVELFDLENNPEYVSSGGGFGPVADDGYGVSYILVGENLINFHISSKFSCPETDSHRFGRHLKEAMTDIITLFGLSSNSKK

[8] = target: T5, Carnitine O-palmitoyltransferase 1, liver isoform (Rattus norvegicus, UniProt P32198); assay: as §2
T5 sequence (P32198 whole entry): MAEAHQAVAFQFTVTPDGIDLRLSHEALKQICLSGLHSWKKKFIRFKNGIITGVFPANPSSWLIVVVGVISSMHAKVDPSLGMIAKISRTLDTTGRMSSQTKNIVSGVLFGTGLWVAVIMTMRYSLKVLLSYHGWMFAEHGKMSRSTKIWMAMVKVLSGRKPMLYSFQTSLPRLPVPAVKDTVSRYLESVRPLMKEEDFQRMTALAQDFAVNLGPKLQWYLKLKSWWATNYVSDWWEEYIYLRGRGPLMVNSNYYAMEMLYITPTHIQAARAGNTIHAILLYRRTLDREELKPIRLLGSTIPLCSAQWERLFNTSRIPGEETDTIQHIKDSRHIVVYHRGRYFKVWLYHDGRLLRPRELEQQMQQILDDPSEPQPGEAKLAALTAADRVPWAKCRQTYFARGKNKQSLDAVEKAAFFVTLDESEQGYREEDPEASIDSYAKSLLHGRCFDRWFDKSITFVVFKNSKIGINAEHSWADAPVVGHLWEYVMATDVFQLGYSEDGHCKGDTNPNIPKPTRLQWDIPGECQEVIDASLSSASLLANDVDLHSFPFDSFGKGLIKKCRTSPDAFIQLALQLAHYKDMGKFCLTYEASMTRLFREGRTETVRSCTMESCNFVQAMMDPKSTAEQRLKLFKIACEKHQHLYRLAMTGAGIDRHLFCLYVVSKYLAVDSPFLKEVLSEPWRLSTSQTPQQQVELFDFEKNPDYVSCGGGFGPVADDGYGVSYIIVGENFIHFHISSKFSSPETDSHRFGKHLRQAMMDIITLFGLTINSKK

Structure (SMILES) | logD [1] | Papp [2] | pIC50 [3] | pIC50 [4] | solubility kinetic [5] | pIC50 [6] | pIC50 [7] | pIC50 [8]
O=C([C@H]1CCCCN1C(=O)COc1ccccc1)N1Cc2ccc(Cl)cc2C1 | 3.26 | 5.03 ×10⁻⁶ cm/s | 6.09 | 6.21 | 15 µg/mL (≈ 37.6 µM) | < 4.00 | 6.47 | 6.25
COc1ccc(Cl)cc1S(=O)(=O)N1CCOc2c(C)cc(C(=O)Nc3ccc(CC(=O)O)cc3)cc21 | 0.68 | 2.08 ×10⁻⁶ cm/s | < 4.00 | < 4.00 | 502 µg/mL (≈ 946 µM) | 5.44 | 6.56 | 6.69
COc1ccc(Cl)cc1S(=O)(=O)N1CCOc2c(C)cc(C(=O)Nc3nc(CC(=O)O)cs3)cc21 | 2.55 | 1.88 ×10⁻⁶ cm/s | < 4.00 | < 4.00 | 3 µg/mL (≈ 5.58 µM) | 5.50 | 7.27 | 7.42
COc1ccc(Cl)cc1S(=O)(=O)N1COc2c(C)cc(C(=O)Nc3nc(CC(=O)O)cs3)cc21 | 0.58 | 2.77 ×10⁻⁶ cm/s | < 4.00 | 4.39 | 195 µg/mL (≈ 372 µM) | 6.07 | 7.10 | 7.18
CCOc1ccc(C(=O)Nc2ccc(CC(=O)O)cc2)cc1N(CCS(=O)O)S(=O)(=O)c1cc(Cl)ccc1OC | < -1 | 0.04 ×10⁻⁶ cm/s | < 4.00 | < 4.00 | 577 µg/mL (≈ 944 µM) | 6.20 | 6.98 | 6.39
CCOc1ccc(C(=O)Nc2ccc(C(=O)O)c(F)c2)cc1N(CCS(=O)O)S(=O)(=O)c1cc(Cl)ccc1OC | -1.31 | 0.07 ×10⁻⁶ cm/s | < 4.00 | < 4.00 | > 685 µg/mL | 4.56 | 6.84 | 6.86
COc1ccc(Cl)cc1Cc1c[nH]c2ccc(C(=O)Nc3nc(CC(=O)O)cs3)cc12 | 1.48 | 0.49 ×10⁻⁶ cm/s | < 4.00 | < 4.00 | 55 µg/mL (≈ 121 µM) | 5.92 | 7.41 | 7.23
COc1ccc(Cl)cc1Cc1c[nH]c2ccc(C(=O)Nc3ccc(CC(=O)O)cc3)cc12 | 0.72 | 0.43 ×10⁻⁶ cm/s | < 4.00 | < 4.00 | 319 µg/mL (≈ 711 µM) | 6.31 | 6.74 | 6.83
O=C([C@H]1CCCCN1C(=O)COc1ccccc1)N1CCc2cccc(Cl)c2C1 | 3.2 | 1.91 ×10⁻⁶ cm/s | 5.45 | 5.55 | < 1 µg/mL | 4.10 | 6.74 | 6.96
COc1cccc2c1CCN(C(=O)[C@H]1CCCCN1C(=O)COc1ccccc1)C2 | 3.13 | 5.46 ×10⁻⁶ cm/s | 5.66 | 6.01 | 23 µg/mL (≈ 56.3 µM) | < 4.00 | 6.66 | 6.33
